Experiments:
[1] = biological target: T1, Hen egg white lysozyme (HEWL) (Gallus gallus, UniProt P00698); assay: intrinsic Trp fluorescence quenching, modified Stern-Volmer; type: binding; conditions: pH 7.4, 20 mM sodium phosphate, 25°C, 5 μM HEWL, excitation 295 nm, double-log
T1 construct: gene LYZ; native egg-white protein, commercial (Sigma), dialysed; mature chain, 129 residues, monomer, four disulfides
Excerpt: intrinsic Trp fluorescence quenching, modified Stern-Volmer on Hen egg white lysozyme (HEWL)

[2] = biological target: T1, Hen egg white lysozyme (HEWL); assay: heat-induced aggregation, turbidity at […] nm, single exponential fit; type: biochemical; conditions: pH 7.4, 65°C, 120 h, 10 μM HEWL, stirring; inhibition of aggregation

T1 sequence (P00698 19-147): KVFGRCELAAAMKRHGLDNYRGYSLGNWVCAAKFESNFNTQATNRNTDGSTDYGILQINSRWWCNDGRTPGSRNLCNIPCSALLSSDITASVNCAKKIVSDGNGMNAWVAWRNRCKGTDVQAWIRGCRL

SMILES: N[C@@H]1CONC1=O [D-cycloserine, D-4-amino-3-isoxazolidone]
- binding constant ([1]; n = 1.1, unreliable (text b59 prints another value)): (2.70±0.18)×10^3 M^-1
- Λ [2]: 470 M⁻¹

SMILES: NC(=O)c1cnccn1 [pyrazinamide]
- binding constant ([1]; n = 1.2): (2.45±0.19)×10^4 M^-1
- Λ [2]: 1500 M⁻¹
